The source of these data is patent US4086417A, “Cytidine nucleotide derivatives” (Asahi Kasei Kogyo Kabushiki Kaisha, priority 1974, dated 1978).

The test deals with leukemia L-1210. Briefly: Antitumour activity in mice inoculated intraperitoneally with leukemia L-1210 (survival, T/C). It counts as in vivo, CDF-1 male mice. Particulars: for response vs control in vivo at 100 mg/kg / response vs control in vivo at 200 mg/kg / response vs control in vivo at 400 mg/kg: Mus musculus, L1210, ip, directly after injection of L-1210, after 2 days and after 6 days; for response vs control in vivo at 100 mg/kg: 100 mg/kg i.p.; for response vs control in vivo at 200 mg/kg: 200 mg/kg i.p.; for response vs control in vivo at 400 mg/kg: 400 mg/kg i.p. How it is done: The antitumour activity for mice of the test material was evaluated by means of survival rate comparison, T/C (%), that is, 100 times the mean survival period of the groups injected with the test material divided by the mean survival period of the comparison groups which were not injected with the test material.
Further, for comparison, the following materials were also subjected to the same biological test: […]

For `Nc1ccn([C@@H]2O[C@H](COP(=O)(O)O)[C@@H](O)[C@@H]2O)c(=O)n1` [Ara-C-5'-p.circle., 1-β-D-arabinofuranosylcytosine-5'-phosphate], the response vs control in vivo at 100 mg/kg was 119%, the response vs control in vivo at 200 mg/kg worked out at 131% and the response vs control in vivo at 400 mg/kg was determined as 143%. Besides, the “Antileukemial effect on mice (in words)” value (L-1210 in mice, conclusions in words) is recorded as “inferior to 1-β-D-arabinofuranosylcytosine in antileukemical effect on mice”.

For the molecule `CC(=O)Nc1ccn([C@@H]2O[C@H](COP(=O)(O)O)[C@@H](O)[C@@H]2O)c(=O)n1` [N^4 -Acetyl-5'-PNa], the response vs control in vivo at 100 mg/kg was 101%, the response vs control in vivo at 200 mg/kg was 99% and the response vs control in vivo at 400 mg/kg was found to be 99%.

`CC(=O)Nc1ccn([C@@H]2O[C@H](CO)[C@@H](O)[C@@H]2O)c(=O)n1` [N^4 -Acetyl-Ara-C] showed a response vs control in vivo at 100 mg/kg of 125%, a response vs control in vivo at 200 mg/kg of 125% and a response vs control in vivo at 400 mg/kg of 125%.

The molecule `CCCCC/C=C\C/C=C\C/C=C\C/C=C\CCCC(=O)Nc1ccn([C@@H]2O[C@H](COP(=O)(O)O)[C@@H](O)[C@@H]2O)c(=O)n1` [N^4 -Arachidonoyl-5'-PNa, N^4-arachidonoyl-1-β-D-arabinofuranosylcytosine-5'-phosphate monosodium] came in with a response vs control in vivo at 100 mg/kg of 274%, a response vs control in vivo at 200 mg/kg of 148% and a response vs control in vivo at 400 mg/kg of 115%.

Consider `CCCCC/C=C\C/C=C\C/C=C\C/C=C\CCCC(=O)Nc1ccn([C@@H]2O[C@H](CO)[C@@H](O)[C@@H]2O)c(=O)n1` [N^4 -Arachidonoyl-Ara-C], for which the response vs control in vivo at 100 mg/kg amounted to 269%, the response vs control in vivo at 200 mg/kg is 137% and the response vs control in vivo at 400 mg/kg stood at 114%.

`CCCCCCCCCCCCCCCCCCCC(=O)Nc1ccn([C@@H]2O[C@H](COP(=O)(O)O)[C@@H](O)[C@@H]2O)c(=O)n1` [N^4 -Arachidoyl-5'-PNa, N^4-arachidoyl-1-β-D-arabinofuranosylcytosine-5'-phosphate monosodium] yielded a response vs control in vivo at 100 mg/kg of 320%, a response vs control in vivo at 200 mg/kg of 130% and a response vs control in vivo at 400 mg/kg of 106%.

`CCCCCCCCCCCCCCCCCCCC(=O)Nc1ccn([C@@H]2O[C@H](CO)[C@@H](O)[C@@H]2O)c(=O)n1` [N^4 -Arachidoyl-Ara-C] had a response vs control in vivo at 100 mg/kg of 313%, a response vs control in vivo at 200 mg/kg of 128% and a response vs control in vivo at 400 mg/kg of 105%.

In turn, `CCCCCCCCCCCCCCCCCCCCCC(=O)Nc1ccn([C@@H]2O[C@H](COP(=O)(O)O)[C@@H](O)[C@@H]2O)c(=O)n1` [N^4 -Behenoyl-5'-PNa] displayed a response vs control in vivo at 100 mg/kg of 316%, a response vs control in vivo at 200 mg/kg of 280% and a response vs control in vivo at 400 mg/kg of 270%.

In turn, `CCCCCCCCCCCCCCCCCCCCCC(=O)Nc1ccn([C@@H]2O[C@H](CO)[C@@H](O)[C@@H]2O)c(=O)n1` [N^4 -Behenoyl-Ara-C] showed a response vs control in vivo at 100 mg/kg of 313%, a response vs control in vivo at 200 mg/kg of 260% and a response vs control in vivo at 400 mg/kg of 256%.

`CCCC(=O)Nc1ccn([C@@H]2O[C@H](COP(=O)(O)O)[C@@H](O)[C@@H]2O)c(=O)n1` [N^4 -Butyryl-5'-PNa] came in with a response vs control in vivo at 100 mg/kg of 105%, a response vs control in vivo at 200 mg/kg of 102% and a response vs control in vivo at 400 mg/kg of 100%.

The molecule `CCCC(=O)Nc1ccn([C@@H]2O[C@H](CO)[C@@H](O)[C@@H]2O)c(=O)n1` [N^4 -Butyryl-Ara-C] registered a response vs control in vivo at 100 mg/kg of 131%, a response vs control in vivo at 200 mg/kg of 131% and a response vs control in vivo at 400 mg/kg of 139%.

For the molecule `CCCCCC(=O)Nc1ccn([C@@H]2O[C@H](COP(=O)(O)O)[C@@H](O)[C@@H]2O)c(=O)n1` [N^4 -Caproyl-5'-PNa], the response vs control in vivo at 100 mg/kg worked out at 103%, the response vs control in vivo at 200 mg/kg is 105% and the response vs control in vivo at 400 mg/kg turned out to be 101%.

For the molecule `CCCCCC(=O)Nc1ccn([C@@H]2O[C@H](CO)[C@@H](O)[C@@H]2O)c(=O)n1` [N^4 -Caproyl-Ara-C], the response vs control in vivo at 100 mg/kg came to 125%, the response vs control in vivo at 200 mg/kg amounted to 133% and the response vs control in vivo at 400 mg/kg is 150%.

Regarding `CCCCCCCCCC(=O)Nc1ccn([C@@H]2O[C@H](COP(=O)(O)O)[C@@H](O)[C@@H]2O)c(=O)n1` [N^4 -Capryl-5'-PNa], the response vs control in vivo at 100 mg/kg turned out to be 103%, the response vs control in vivo at 200 mg/kg came to 102% and the response vs control in vivo at 400 mg/kg was 98%.

The molecule `CCCCCCCCCC(=O)Nc1ccn([C@@H]2O[C@H](CO)[C@@H](O)[C@@H]2O)c(=O)n1` [N^4 -Capryl-Ara-C] yielded a response vs control in vivo at 100 mg/kg of 159%, a response vs control in vivo at 200 mg/kg of 188% and a response vs control in vivo at 400 mg/kg of more than 284%.

Molecule `CCCCCCCC(=O)Nc1ccn([C@@H]2O[C@H](COP(=O)(O)O)[C@@H](O)[C@@H]2O)c(=O)n1` [N^4 -Caprylyl-5'-PNa] came in with a response vs control in vivo at 100 mg/kg of 103%, a response vs control in vivo at 200 mg/kg of 101% and a response vs control in vivo at 400 mg/kg of 99%.

Take `CCCCCCCC(=O)Nc1ccn([C@@H]2O[C@H](CO)[C@@H](O)[C@@H]2O)c(=O)n1` [N^4 -Caprylyl-Ara-C]: the response vs control in vivo at 100 mg/kg was determined as 123%, the response vs control in vivo at 200 mg/kg was 127% and the response vs control in vivo at 400 mg/kg was 163%.

The molecule `CCCCCCCCCCCC(=O)Nc1ccn([C@@H]2O[C@H](COP(=O)(O)O)[C@@H](O)[C@@H]2O)c(=O)n1` [N^4 -Lauroyl-5'-PNa] came in with a response vs control in vivo at 100 mg/kg of 110%, a response vs control in vivo at 200 mg/kg of 115% and a response vs control in vivo at 400 mg/kg of 115%.

Molecule `CCCCC/C=C\C/C=C\CCCCCCCC(=O)Nc1ccn([C@@H]2O[C@H](COP(=O)(O)O)[C@@H](O)[C@@H]2O)c(=O)n1` [N^4 -Linoleoyl-5'-PNa] had a response vs control in vivo at 100 mg/kg of 275%, a response vs control in vivo at 200 mg/kg of 145% and a response vs control in vivo at 400 mg/kg of 120%.

`CCCCC/C=C\C/C=C\CCCCCCCC(=O)Nc1ccn([C@@H]2O[C@H](CO)[C@@H](O)[C@@H]2O)c(=O)n1` [N^4 -Linoleoyl-Ara-C] had a response vs control in vivo at 100 mg/kg of 268%, a response vs control in vivo at 200 mg/kg of 140% and a response vs control in vivo at 400 mg/kg of 112%.

Molecule `CCCCCCCCCCCCCC(=O)Nc1ccn([C@@H]2O[C@H](COP(=O)(O)O)[C@@H](O)[C@@H]2O)c(=O)n1` [N^4 -Myristoyl-5'-PNa, N^4 -Myristoyl-1-β-D-arabinofuranosylcytosine-5'-phosphate monosodium] came in with a response vs control in vivo at 100 mg/kg of more than 219%, a response vs control in vivo at 200 mg/kg of more than 261% and a response vs control in vivo at 400 mg/kg of 93%.

Consider `CCCCCCCCCCCCCC(=O)Nc1ccn([C@@H]2O[C@H](CO)[C@@H](O)[C@@H]2O)c(=O)n1` [N^4 -Myristoyl-Ara-C, N^4-myristoyl-1-β-D-arabinofuranosylcytosine], for which the response vs control in vivo at 100 mg/kg was determined as 206%, the response vs control in vivo at 200 mg/kg stood at 127% and the response vs control in vivo at 400 mg/kg came to 90%.

As for `CCCCCCCCCCCCCCCCCCC(=O)Nc1ccn([C@@H]2O[C@H](COP(=O)(O)O)[C@@H](O)[C@@H]2O)c(=O)n1` [N^4 -Nonadecanoyl-5'-PNa, N^4-nonadecanoyl-1-β-D-arabinofuranosylcytosine-5'-phosphate monosodium], the response vs control in vivo at 100 mg/kg amounted to 385%, the response vs control in vivo at 200 mg/kg was determined as 232% and the response vs control in vivo at 400 mg/kg was determined as 102%.

Molecule `CCCCCCCCCCCCCCCCCCC(=O)Nc1ccn([C@@H]2O[C@H](CO)[C@@H](O)[C@@H]2O)c(=O)n1` [N^4 -Nonadecanoyl-Ara-C] had a response vs control in vivo at 100 mg/kg of 382%, a response vs control in vivo at 200 mg/kg of 216% and a response vs control in vivo at 400 mg/kg of 134%.

Regarding `CCCCCCCCCCCCCCC(=O)Nc1ccn([C@@H]2O[C@H](COP(=O)(O)O)[C@@H](O)[C@@H]2O)c(=O)n1` [N^4 -Pentadecanoyl-5'-PNa], the response vs control in vivo at 100 mg/kg was more than 302%, the response vs control in vivo at 200 mg/kg was more than 287% and the response vs control in vivo at 400 mg/kg was determined as 86%.

`CCCCCCCCCCCCCCC(=O)Nc1ccn([C@@H]2O[C@H](CO)[C@@H](O)[C@@H]2O)c(=O)n1` [N^4 -Pentadecanoyl-Ara-C] came in with a response vs control in vivo at 100 mg/kg of 302%, a response vs control in vivo at 200 mg/kg of 287% and a response vs control in vivo at 400 mg/kg of 91%.

Molecule `CCC(=O)Nc1ccn([C@@H]2O[C@H](COP(=O)(O)O)[C@@H](O)[C@@H]2O)c(=O)n1` [N^4 -Propionyl-5'-PNa] gave a response vs control in vivo at 100 mg/kg of 99%, a response vs control in vivo at 200 mg/kg of 100% and a response vs control in vivo at 400 mg/kg of 101%.

`CCC(=O)Nc1ccn([C@@H]2O[C@H](CO)[C@@H](O)[C@@H]2O)c(=O)n1` [N^4 -Propionyl-Ara-C]: the response vs control in vivo at 100 mg/kg is 131%, the response vs control in vivo at 200 mg/kg worked out at 131% and the response vs control in vivo at 400 mg/kg is 135%.

On to `CCCCC(=O)Nc1ccn([C@@H]2O[C@H](COP(=O)(O)O)[C@@H](O)[C@@H]2O)c(=O)n1` [N^4 -Valeryl-5'-PNa], for which the response vs control in vivo at 100 mg/kg stood at 101%, the response vs control in vivo at 200 mg/kg worked out at 99% and the response vs control in vivo at 400 mg/kg worked out at 101%.

Regarding `CCCCC(=O)Nc1ccn([C@@H]2O[C@H](CO)[C@@H](O)[C@@H]2O)c(=O)n1` [N^4 -Valeryl-Ara-C], the response vs control in vivo at 100 mg/kg was 133%, the response vs control in vivo at 200 mg/kg came out at 171% and the response vs control in vivo at 400 mg/kg stood at 191%.
